Tests used:
[1] = system: ACh-induced bronchoconstriction; assay: Duration of bronchoprotection in guinea pig model of acetylcholine-induced bronchoconstriction; format: in vivo; settings: inhalation, 1.5 hours post-dose, expected
Method: Groups of six male guinea pigs (Duncan-Hartley (HsdPoc:DH) Harlan, Madison, Wis.) weighing between 250 and 350 g are individually identified by cage cards. Throughout the study, animals are allowed access to food and water ad libitum.
Test compounds are administered via inhalation over 10 minutes in a whole-body exposure dosing chamber (R&S Molds, San Carlos, Calif.). The dosing chambers are arranged so that an aerosol was simultaneously delivered to 6 individual chambers from a central manifold. Guinea pigs are exposed to an aerosol of a test compound or vehicle (WFI). […] This is measured gravimetrically by comparing pre-and post-nebulization weights of the filled nebulizer.
The bronchoprotective effects of test compounds administered via inhalation are evaluated using whole body plethysmography at 1.5, 24, 48 and 72 hours post-dose.
Forty-five minutes prior to the start of the pulmonary evaluation, each guinea pig is anesthetized with an intramuscular injection of ketamine (43.75 mg/kg), xylazine (3.50 mg/kg) and acepromazine (1.05 mg/kg). […] The depth of anesthesia is monitored and adjusted if the animal responds to pinching of its paw or if the respiration rate is greater than 100 breaths/minute. […]
Starting this program initiates the experimental protocol and data collection. […] By integrating this signal over time, a measurement of […] is calculated for each breath. […]

[2] = molecular target: T1, hM2 receptor (CHO-K1 cells) (Homo sapiens, UniProt P08172); assay: Blockade of agonist-mediated [35S]GTPγS binding; format: biochemical; settings: CHO-K1 cells expressing hM2; this or a similar assay; read-out: Ki for blockade of oxotremorine-stimulated [35S]GTPγS binding
T1 construct: expressed in transfected cells; host or cells: CHO-K1 cells
T1 sequence (P08172 1-466): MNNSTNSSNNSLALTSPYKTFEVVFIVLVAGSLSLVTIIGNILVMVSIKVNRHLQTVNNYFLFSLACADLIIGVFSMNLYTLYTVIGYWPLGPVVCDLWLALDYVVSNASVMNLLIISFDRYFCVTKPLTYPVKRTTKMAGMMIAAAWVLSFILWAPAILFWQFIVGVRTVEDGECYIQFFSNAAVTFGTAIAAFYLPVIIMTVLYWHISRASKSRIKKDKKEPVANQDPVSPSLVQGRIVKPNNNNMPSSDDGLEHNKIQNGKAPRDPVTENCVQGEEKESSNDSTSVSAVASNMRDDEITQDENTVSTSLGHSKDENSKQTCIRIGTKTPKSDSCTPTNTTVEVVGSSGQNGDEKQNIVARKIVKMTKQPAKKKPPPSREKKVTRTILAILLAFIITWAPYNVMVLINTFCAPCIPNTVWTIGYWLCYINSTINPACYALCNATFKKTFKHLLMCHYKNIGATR
Method: In a second functional assay, the functional potency of test compounds can be determined by measuring the ability of the compounds to block oxotremorine-stimulated [^35S]GTPγS binding in CHO-K1 cells expressing the hM2 receptor.
At the time of use, frozen membranes were thawed and then diluted in assay buffer with a final target tissue concentration of 5-10 μg protein per well. The membranes were briefly homogenized using a Polytron PT-2100 tissue disrupter and then added to the assay plates. The EC90 value (effective concentration for 90% maximal response) for stimulation of [^35S]GTPγS binding by the agonist oxotremorine was determined in each experiment.
To determine the ability of a test compound to inhibit oxotremorine-stimulated [^35S]GTPγS binding, the following was added to each well of 96 well plates: 25 μL of assay buffer with [^35S]GTPγS (0.4 nM), 25 μL of oxotremorine (EC90) and GDP (3 μM), 25 μL of diluted test compound and 25 μL CHO cell membranes expressing the hM2 receptor. […] Microscint-20 scintillation liquid (50 μL) was added to each well, and each plate was sealed and radioactivity counted on a topcounter (PerkinElmer). Data were analyzed by nonlinear regression analysis with the GraphPad Prism Software package (GraphPad Software, Inc., San Diego, Calif.) using the non-linear regression, one-site competition equation. […]

## CN(CCN1CCC(OC(=O)Nc2ccccc2-c2ccccc2)CC1)C(=O)c1cccc(C(=O)NCCNCc2ccc(O)cc2)c1 [compound of formula I, biphenyl-2-ylcarbamic acid 1-[2-({3-[2-(4-hydroxybenzylamino)ethylcarbamoyl]benzoyl}methylamino)ethyl]piperidin-4-yl ester]
[1]
  PD2(50) for ACh-induced bronchoconstriction: less than 200 μg/mL
[2]
  Ki: < 10 nM
